Test results as given in US7612064B2, “Sulfopyrroles” (Takeda Pharmaceutical Company Limited, priority 2003, dated 2009).

What was measured:
HeLa [1] = assay: PI staining for cell cycle distribution; type: cell-based, human; design: key: 0: no effect; 1: weak effect; 2: strong effect; conditions: HeLa 10μM, 48 h
Procedure: (§1) 1-2*10^5 cells are seeded into 24 well tissue culture plates and incubated for 24 h prior to compound addition. […] Adherent cells are harvested by trypsinization. The cell suspensions are fixed by adding 2 parts ice cold ethanol 100% while vortexing. Then the samples are stored for>2 h at −20° C. Subsequently the cells are washed with PBS once and resuspended in 250 μl PBS containing 50 μg/ml PI (Calbiochem # 537059), then the samples are incubated at 37° C. for 30 min and subsequently analyzed on a FACSCalibur™ monitoring linear PI fluorescence activity on FL2. The readout allows the detection of a possible direct or indirect influence of the tested compounds on the cell cycle. The following events can occur: a) Generation of a subG1 peak indicative for DNA fragmentation, b) increase of the cell population arrested in G2M phase. Both events are scored by 1 for weak and 2 for strong occurrence. 0 indicates no occurrence at all.

Jurkat [2] = assay: PI staining for cell cycle distribution; type: cell-based, human; design: key: 0: no effect; 1: weak effect; 2: strong effect; conditions: Jurkat 3μM, 48 h
Procedure: as §1

HeLa [3] = assay: MTS proliferation assay; type: cell-based, human; conditions: 72 h
Summary of the method: (§2)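 Four-point treatment (0.3–10 μM final) ran 72 h in complete medium, with the compound-containing addition holding no more than 5% DMSO. Metabolic activity was then developed with MTS reagent over 3 h and quantified by absorbance (492 nm).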

Jurkat [4] = assay: MTS proliferation assay; type: cell-based, human; conditions: 72 h
Summary of the method: as §2

MRC5 = assay: MTS proliferation assay; type: cell-based; conditions: MRC5, 72 h
Summary of the method: as §2

Jily = assay: MTS proliferation assay; type: cell-based; conditions: 72 h
Summary of the method: as §2

[5] = Hoechst 33342 nuclear staining; type: cell-based; conditions: 24 h or 48 h incubation; for Hoechst 33342 nuclear staining score, H460: H460 cells; for Hoechst 33342 nuclear staining score, HeLa: HeLa cells; for Hoechst 33342 nuclear staining score, Jily: Jily cells; for Hoechst 33342 nuclear staining score, Jurkat: Jurkat cells; for Hoechst 33342 nuclear staining score, MRC5: MRC5 cells;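 as to all read-outs here: apoptotic nuclei scored 0 none 1 weak under 50% of cells 2 strong over 50% of cells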
Summary of the method: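 Cells were plated in 96 well tissue culture plates in 80 μl complete medium, with 3-5*10^3 cells per well for adherent lines and 8-10*10^3 for suspension lines. Adherent cells spread for 24 h before treatment, while suspension cells were treated right after seeding. Compounds were added in 20 μl complete medium containing max 5% DMSO.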

[6] = conc 0.1 (final concentrations in μM)
[7] = conc 0.3 (final concentrations in μM)
[8] = conc 1 (final concentrations in μM)
[9] = conc 3 (final concentrations in μM)

Compound	PI staining for cell cycle distribution, G2M (HeLa [1])	PI staining for cell cycle distribution, subG1 (HeLa [1])	PI staining for cell cycle distribution, G2M (Jurkat [2])	PI staining for cell cycle distribution, subG1 (Jurkat [2])	IC50 (HeLa [3])	IC50 (Jurkat [4])	IC50 (MRC5)	IC50 (Jily)	Hoechst 33342 nuclear staining score, H460 [5, 6]	Hoechst 33342 nuclear staining score, H460 [5, 7]	Hoechst 33342 nuclear staining score, H460 [5, 8]	Hoechst 33342 nuclear staining score, H460 [5, 9]	Hoechst 33342 nuclear staining score, HeLa [5, 6]	Hoechst 33342 nuclear staining score, HeLa [5, 7]	Hoechst 33342 nuclear staining score, HeLa [5, 8]	Hoechst 33342 nuclear staining score, HeLa [5, 9]	Hoechst 33342 nuclear staining score, Jily [5, 6]	Hoechst 33342 nuclear staining score, Jily [5, 7]	Hoechst 33342 nuclear staining score, Jily [5, 8]	Hoechst 33342 nuclear staining score, Jily [5, 9]	other results
COc1cc(-c2cc(-c3cncc(C(N)=O)c3)cn2S(=O)(=O)c2ccc(C)cc2)cc(OC)c1OC [Example 56]	2	0	1	0	< 1000 nM	< 200 nM	< 1000 nM	< 1000 nM	0	2 (strong activity comprising more than 50% of the cells)	2 (strong activity comprising more than 50% of the cells)	2 (strong activity comprising more than 50% of the cells)	0	0	2 (strong activity comprising more than 50% of the cells)	2 (strong activity comprising more than 50% of the cells)	0	2 (strong activity comprising more than 50% of the cells)	2 (strong activity comprising more than 50% of the cells)	2 (strong activity comprising more than 50% of the cells)	Hoechst 33342 nuclear staining score, Jurkat [5, 6]: 0; Hoechst 33342 nuclear staining score, Jurkat [5, 7]: 2 (strong activity comprising more than 50% of the cells); Hoechst 33342 nuclear staining score, Jurkat [5, 8]: 2 (strong activity comprising more than 50% of the cells); Hoechst 33342 nuclear staining score, Jurkat [5, 9]: 2 (strong activity comprising more than 50% of the cells); Hoechst 33342 nuclear staining score, MRC5 [5, 6]: 0; Hoechst 33342 nuclear staining score, MRC5 [5, 7]: 2 (strong activity comprising more than 50% of the cells); Hoechst 33342 nuclear staining score, MRC5 [5, 8]: 2 (strong activity comprising more than 50% of the cells); Hoechst 33342 nuclear staining score, MRC5 [5, 9]: 2 (strong activity comprising more than 50% of the cells); Hoechst 33342 nuclear staining score, PBLs [5, 6]: 0; Hoechst 33342 nuclear staining score, PBLs [5, 7]: 0; Hoechst 33342 nuclear staining score, PBLs [5, 8]: 0; Hoechst 33342 nuclear staining score, PBLs [5, 9]: 0
Cc1ccc(S(=O)(=O)n2cc(-c3ccc(S(N)(=O)=O)cc3)cc2-c2ccc3c(c2)OCO3)cc1 [Example 51]	2	0	1	0	< 1000 nM	< 1000 nM	< 1000 nM	< 1000 nM	0	0	2 (strong activity comprising more than 50% of the cells)	2 (strong activity comprising more than 50% of the cells)	0	0	2 (strong activity comprising more than 50% of the cells)	2 (strong activity comprising more than 50% of the cells)	0	0	2 (strong activity comprising more than 50% of the cells)	2 (strong activity comprising more than 50% of the cells)	Hoechst 33342 nuclear staining score, Jurkat [5, 6]: 0; Hoechst 33342 nuclear staining score, Jurkat [5, 7]: 0; Hoechst 33342 nuclear staining score, Jurkat [5, 8]: 2 (strong activity comprising more than 50% of the cells); Hoechst 33342 nuclear staining score, Jurkat [5, 9]: 2 (strong activity comprising more than 50% of the cells); Hoechst 33342 nuclear staining score, MRC5 [5, 6]: 0; Hoechst 33342 nuclear staining score, MRC5 [5, 7]: 0; Hoechst 33342 nuclear staining score, MRC5 [5, 8]: 1 (weak activity comprising less than 50% of the cells); Hoechst 33342 nuclear staining score, MRC5 [5, 9]: 1 (weak activity comprising less than 50% of the cells); Hoechst 33342 nuclear staining score, PBLs [5, 6]: 0; Hoechst 33342 nuclear staining score, PBLs [5, 7]: 0; Hoechst 33342 nuclear staining score, PBLs [5, 8]: 0; Hoechst 33342 nuclear staining score, PBLs [5, 9]: 0
